# Measurements as given in ChEMBL document CHEMBL4138123, “Design, synthesis and biological evaluation of novel pyrazolochalcones as potential modulators of PI3K/Akt/mTOR pathway and inducers of apoptosis in breast cancer cells” (Eur J Med Chem, 2017).
# Key:
# Format in all cases: functional
# RPMI-8226 = assay: Cytotoxicity against human RPMI8226 cells assessed as growth inhibition after 48 hrs by sulforhodamine B assay; conditions: RPMI-8226, 48 h
# SK-OV-3 = assay: Cytotoxicity against human SKOV3 cells assessed as growth inhibition after 48 hrs by sulforhodamine B assay; conditions: SK-OV-3, 48 h
# SW-620 = assay: Cytotoxicity against human SW620 cells assessed as growth inhibition after 48 hrs by sulforhodamine B assay; conditions: SW-620, 48 h
# A549 = assay: Cytotoxicity against human A549/ATCC cells assessed as growth inhibition after 48 hrs by sulforhodamine B assay; conditions: A549, 48 h
# SR = assay: Cytotoxicity against human SR cells assessed as growth inhibition after 48 hrs by sulforhodamine B assay
# HCC 2998 = assay: Cytotoxicity against human HCC2998 cells assessed as growth inhibition after 48 hrs by sulforhodamine B assay; conditions: HCC 2998, 48 h
# SNB-19 = assay: Cytotoxicity against human SNB19 cells assessed as growth inhibition after 48 hrs by sulforhodamine B assay; conditions: SNB-19, 48 h
# OVCAR-5 = assay: Cytotoxicity against human OVCAR5 cells assessed as growth inhibition after 48 hrs by sulforhodamine B assay; conditions: OVCAR-5, 48 h
# A498 = assay: Cytotoxicity against human A498 cells assessed as growth inhibition after 48 hrs by sulforhodamine B assay; conditions: A498, 48 h
structure (smiles),measurement,setting,value
COc1ccc(-c2cc(/C=C/C(=O)c3ccc4c(c3)OCO4)[nH]n2)cc1OC,GI50,RPMI-8226,0.37 µM
same,GI50,SK-OV-3,3.13 µM
same,GI50,SW-620,1.5 µM
same,GI50,A549,2.25 µM
same,GI50,SR,0.25 µM
same,GI50,HCC 2998,1.74 µM
same,GI50,SNB-19,1.67 µM
same,GI50,OVCAR-5,1.76 µM
same,GI50,A498,1.27 µM
